From paper PMC8845285, “Serotoninergic receptor ligands improve Tamoxifen effectiveness on breast cancer cells” (BMC Cancer, 2022) come the findings set out here.

In assay [1] the target is T1, serotonin 5-HT1A receptor (Rattus norvegicus, UniProt P19327).
T1 construct: serotonin 5-HT1A receptor, [^3H]-8-OH-DPAT, rat brain cortex; from tissue; host or cells: rat brain cortex
T1 sequence (P19327 1-422): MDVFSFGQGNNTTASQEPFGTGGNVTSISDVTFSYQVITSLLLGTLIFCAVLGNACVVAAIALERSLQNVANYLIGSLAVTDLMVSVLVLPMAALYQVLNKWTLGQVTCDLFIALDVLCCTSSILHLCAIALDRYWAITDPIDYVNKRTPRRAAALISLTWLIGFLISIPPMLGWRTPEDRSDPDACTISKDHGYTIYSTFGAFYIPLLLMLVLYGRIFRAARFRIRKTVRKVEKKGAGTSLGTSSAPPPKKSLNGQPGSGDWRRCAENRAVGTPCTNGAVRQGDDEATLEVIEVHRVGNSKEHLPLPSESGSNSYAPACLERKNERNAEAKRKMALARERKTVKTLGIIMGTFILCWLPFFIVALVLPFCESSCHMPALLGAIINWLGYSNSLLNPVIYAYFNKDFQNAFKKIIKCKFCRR
Kind of assay: radioligand binding assay, 5-HT1A, [3H]-8-OH-DPAT. The following applies: rat brain cortex; read-out: Ki ± SD, 5-HT1A [3H]8OH-DPAT. The method, then: (§1) All reactions were monitored by TLC, carried out on Merck 60G F254 plates with fluorescent indicator and the plates were visualized with UV light (254 nm). Each final compound and intermediate was purified by silica gel column chromatography (Macherey-Nagel 60 0,063–0,2 mm/70–230 mesh). […] Unless otherwise stated, all spectra were recorded in CDCl3. Chemical shifts are reported in ppm using Me4Si as internal standard. The following abbreviations are used to describe peak patterns when appropriate: s (singlet), d (doublet), t (triplet), m (multiplet), q (quartet), qt (quintet), dd (double doublet), ddd (double dd), bs (broad singlet). Mass spectra of the final products were performed on LTQ Orbitrap XL™ Fourier transform mass spectrometer (FTMS) equipped with ESI ION MAX™ source (Thermo Fisher, San José, USA). Melting points were determined using a Buchi B-540 hot-stage instrument and are uncorrected. […] All the compounds were dissolved in 5% DMSO. The following specific radioligands and tissue sources were used: (a)serotonin 5-HT1A receptor, [^3H]-8-OH-DPAT, rat brain cortex; (b) serotonin 5-HT2A receptor, [^3H]ketanserin, rat brain cortex; (c)serotonin 5-HT2C receptor, [^3H]mesulergine, rat brain cortex. Non-specific binding was determined as described in the experimental section, and specific binding as the difference between total and non-specific binding. […] The IC50 values obtained were used to calculate apparent inhibition constants (Ki) by the method of Cheng and Prussoff, from the following equation: Ki = IC50/(1 + S/KD) where S represents the concentration of the hot ligand used and KD its receptor dissociation constant (KD values, obtained by Scatchard analysis, were calculated for each labeled ligand). Radioligand binding assays for 5-HT1A were performed following a published procedure. 5-HT2A and 5-HT2C binding assays were performed reported by Herndon et al..

In assay [2] the test system is MDA-MB231 cells. The assay is described as follows: MDA-MB231 cell viability, sulforhodamine B assay. The following applies: for IC50: Homo sapiens, MDA-MB-231, 72 h treatment. It is filed as cell-based, human. The method, then: (§2) MCF7 (ER^+, PR^+, HER2^−), SKBR3 (ER^−, PR^+, HER2^+) and MDA-MB231 (ER^−, PR^−, HER2^−) human BC cells and MCF10A non-cancer breast epithelial cells were available in our laboratory. MCF7, SKBR3 and MDA-MB231 cells were cultured in DMEM, supplemented with 10% FBS, 2 mM glutamine, 100 units/ml penicillin and 100 units/ml streptomycin. MCF10A cells were cultured in MEBM, supplemented with 0.4% BPE, 0.1% hEGF, 0.1%, Insulin, 0.1% Hydrocortisone and 0.1% GA-1000. […] Treatment with SER were carried out in culture conditions. Treatment with Tamoxifen and/or SER were carried out upon 48 h estrogen starvation in phenol-red free medium supplemented with 10% Charcoal Stripped (C/S) FBS, 2 mM glutamine, 100 units/ml penicillin and 100 units/ml streptomycin.
(§3) Cells were fixed with 50% trichloroacetic acid for at least 2 h at 4 °C, washed with distilled and de-ionized water, air-dryed and stained 30 min with 0.4% sulforhodamine B in 1% acetic acid. Unbound dye was removed and 10 mM tris-HCl solution (pH 7.5) was added to dissolve the protein-bound dye. Cell survival was assessed by optical density determination at 510 nm using a microplate reader.
Cell viability was assessed, after 72 h, by sulforhodamine B assay (see Methods).

For assay [3], the system named is SKBR3 cells. The assay is described as follows: SKBR3 cell viability, sulforhodamine B assay. The assay is classed as cell-based, human. The following applies: for IC50: Homo sapiens, SK-BR-3, 72 h treatment. The method, then: as §2, §3
Fig. 3 Effect of SER on SKBR3 cell viability. […] Cell viability was assessed, after 72 h, by sulforhodamine B assay (see Methods).

Assay [4] deals with T2, serotonin 5-HT2C receptor (Rattus norvegicus, UniProt P08909).
T2 construct: serotonin 5-HT2C receptor, [^3H]mesulergine, rat brain cortex; from tissue; host or cells: rat brain cortex
T2 sequence (P08909 33-460): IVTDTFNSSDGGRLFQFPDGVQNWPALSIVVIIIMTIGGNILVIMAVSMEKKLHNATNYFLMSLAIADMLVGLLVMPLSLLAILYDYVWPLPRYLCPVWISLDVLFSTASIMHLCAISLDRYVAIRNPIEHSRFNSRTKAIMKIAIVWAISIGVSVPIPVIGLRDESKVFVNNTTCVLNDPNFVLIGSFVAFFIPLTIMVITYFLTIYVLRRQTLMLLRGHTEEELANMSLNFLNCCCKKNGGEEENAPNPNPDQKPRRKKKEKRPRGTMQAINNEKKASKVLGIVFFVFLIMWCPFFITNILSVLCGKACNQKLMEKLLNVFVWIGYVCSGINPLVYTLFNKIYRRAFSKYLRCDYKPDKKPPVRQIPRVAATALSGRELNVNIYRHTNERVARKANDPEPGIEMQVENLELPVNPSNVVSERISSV
The assay is described as follows: radioligand binding assay, 5-HT2C, [3H]mesulergine. To be noted: read-out: Ki ± SD, 5-HT2C [3H]Mesulergine. The method, then:
as §1

Assay [5] has as its target T3, serotonin 5-HT2A receptor (Rattus norvegicus, UniProt P14842).
T3 construct: serotonin 5-HT2A receptor, [^3H]ketanserin, rat brain cortex; from tissue; host or cells: rat brain cortex
Kind of assay: radioligand binding assay, 5-HT2A, [3H]ketanserin. The following applies: rat brain cortex; read-out: Ki ± SD, 5-HT2A [3H]Ketanserin. On the procedure: as §1

The subject of assay [6] is MCF7 cells. Kind of assay: MCF7 cell viability, sulforhodamine B assay. The assay is classed as cell-based, human. The following applies: for IC50: Homo sapiens, MCF7. On the procedure: as §2, §3
After 48 and 72 h, cell viability was assessed by sulforhodamine B assay (see Methods).

The mark [7] stands for this setting: 48 h treatment, read-out: IC50 MCF7 48h.
The mark [8] stands for this setting: 72 h treatment, read-out: IC50 MCF7.

Like-named read-outs stand apart in the source and are kept apart here.

T3 sequence (P14842 whole entry): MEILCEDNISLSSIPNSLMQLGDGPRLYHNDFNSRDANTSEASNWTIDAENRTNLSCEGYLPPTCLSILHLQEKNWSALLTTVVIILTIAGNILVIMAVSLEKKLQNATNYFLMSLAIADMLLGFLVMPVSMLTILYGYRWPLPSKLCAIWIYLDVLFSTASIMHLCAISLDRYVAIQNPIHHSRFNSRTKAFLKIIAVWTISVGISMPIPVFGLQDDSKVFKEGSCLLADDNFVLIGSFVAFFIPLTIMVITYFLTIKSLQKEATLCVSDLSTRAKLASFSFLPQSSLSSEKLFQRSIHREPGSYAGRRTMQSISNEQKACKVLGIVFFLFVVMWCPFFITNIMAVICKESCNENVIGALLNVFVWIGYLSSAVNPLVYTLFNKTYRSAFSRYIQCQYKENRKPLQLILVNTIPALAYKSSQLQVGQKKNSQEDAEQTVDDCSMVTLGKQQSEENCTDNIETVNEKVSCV

Turning to `O=C(NCCN1CCN(c2cccc(C(F)(F)F)c2)CC1)c1ccccn1` [SER167], the inhibition constant (Ki) was determined as 1.32 ± 0.012 µM in assay [1], 0.14 ± 0.0025 µM in assay [4] and 0.0485 ± 0.0027 µM in assay [5]. Also, the IC50 in assay [2] amounted to 223 ± 154 µM; in assay [3], 152 ± 21.6 µM; in assay [6] (setting [7]), 151 ± 41.6 µM; in assay [6] (setting [8]) it was 54.2 ± 10 µM.

Turning to `O=C(NCCCN1CCN(C(=O)c2ccco2)CC1)c1ccccn1` [SER196], the concentration for half-maximal inhibition (IC50) in assay [2] turned out to be 306 ± 65.8 µM; in assay [3] it was 202 ± 31.2 µM; in assay [6] (setting [7]) it was 206 ± 50.7 µM; in assay [6] (setting [8]), 124 ± 31 µM. The Ki in assay [5] was 0.00168 ± 0.0004 µM.

`O=C(NCCN1CCN(C(c2ccc(F)cc2)c2ccc(F)cc2)CC1)c1ccccn1` [SER177]: the IC50 in assay [2] stood at 198 ± 66.7 µM; in assay [3], 43.3 ± 11.1 µM; in assay [6] (setting [7]), 253 ± 65.6 µM; in assay [6] (setting [8]) it was 66.6 ± 16.2 µM. Further, the inhibition constant (Ki) was 0.0008 ± 5e-05 µM in assay [4] (rat brain cortex) and 0.218 ± 0.0093 µM in assay [5].

As to `O=C(NCCCN1CCN(Cc2ccc3c(c2)OCO3)CC1)c1ccccn1` [SER195], the half-inhibitory concentration (IC50) turned out to be 322 ± 118 µM in assay [2], 150 ± 26 µM in assay [3], 156 ± 36.1 µM in assay [6] (setting [7]) and 53.3 ± 8.29 µM in assay [6] (setting [8]). Moreover, the Ki in assay [5] came to 0.0453 ± 0.0057 µM.

In the case of `O=C(NCCCN1CCN(C(c2ccc(F)cc2)c2ccc(F)cc2)CC1)c1ccccn1` [SER198], the Ki in assay [1] was determined as 0.0527 ± 0.0027 µM; in assay [4] it was 0.117 ± 0.0061 µM; in assay [5], 0.0778 ± 0.0021 µM. In addition, the IC50 in assay [2] turned out to be 91.3 ± 18.6 µM; in assay [3], 67.7 ± 8.02 µM; in assay [6] (setting [7]), 106 ± 18.4 µM; in assay [6] (setting [8]) it was 10.2 ± 2.5 µM. In assay [3] (50 μM, 72 h), the “reduction of SKBR3 cell viability” value was “≈ 50%”. Also, in assay [6] (50 μM, 72 h), the “reduction of MCF7 cell viability” value is “≈ 70%”.

`O=C(c1ccco1)N1CCN(CC(O)CON2C(=O)C3C4C=CC(C4)C3C2=O)CC1` (stereo not shown) [SER31, 4-[3-[4-(2-furoyl)piperazin-1-yl]propoxy-2-ol]-4-aza-tricyclo [5.2.1.02,6]dec-8-ene-3,5-dione]: the Ki in assay [1] is 1.05 ± 0.000231 µM; in assay [4] (rat brain cortex), 0.00504 ± 0.000227 µM; in assay [5], more than 10 µM. The “inhibition of MDA-MB231 cell growth” value in assay [2] (100 μM, 72 h) was “able to inhibit”. Besides, the concentration for half-maximal inhibition (IC50) worked out at 136 ± 38.6 µM in assay [2], 100 ± 30.8 µM in assay [3], 336 ± 153 µM in assay [6] (setting [7]) and 99.2 ± 33 µM in assay [6] (setting [8]).
